In patent US20060046966A1, “Antipicornaviral compounds and compositions, their pharmaceutical uses, and materials for their synthesis” (Agouron Pharmaceuticals, Inc., priority 1998, published 2006):
Where two headings read alike, the source gives them in different places.

What was measured:
[1] = test system: Coxsackievirus type A-21 (CAV-21); assay: Anticoxsackieviral cell culture assay, CAV-21; assay type: cell-based; details: 48 h, Strain CAV-21, H1-HeLa cells, two days, XTT, read-out: EC50
Protocol: Coxsackievirus types A-21 (CAV-21) and B3 (CVB-3) were purchased from American Type Culture Collection (ATCC, Rockville, Md.). Virus stocks were propagated and antiviral assays were performed in H1-HeLa cells (ATCC). Cells were grown in minimal essential medium with 10% fetal bovine serum (Life Technologies, Gaithersburg, Md.).
The ability of compounds to protect cells against either CAV-21 or CVB-3 infection was measured by the XTT dye reduction method. This method is described in Weislow et al., J. Natl. Cancer Inst. 1989, vol. 81, 577-586. H1-HeLa cells were infected with CAV-21 or CVB-3 at a multiplicity of infection (m.o.i.) of 0.025 or 0.075, respectively, or mock-infected with medium only. H1-HeLa cells were plated at 4×10^4 cells per well in a 96-well plate and incubated with appropriate concentrations of the test compound. One day (CVB-3) or two days (CAV-21) later, XTT/PMS was added to test plates and the amount of formazan produced was quantified spectrophotometrically at 450/650 nm. The EC50 was calculated as the concentration of compound that increased the formazan production in compound-treated, virus-infected cells to 50% of that produced by compound-free, uninfected cells. The 50% cytotoxic dose (CC50) was calculated as the concentration of compound that decreased formazan production in compound-treated, uninfected cells to 50% of that produced in compound-free, uninfected cells. The therapeutic index TI) was calculated by dividing the CC50 by the EC50.
The compounds were tested against control compounds WIN 54954 (obtained from Sterling-Winthrop Pharmaceuticals), Pirodavir (obtained from Janssen Pharmaceuticals), and Pleconaril (prepared according to Diana et al., J. Med. Chem. 1995, 38, 1355).

HRV-14 = assay: Antirhinoviral H1-HeLa cell culture assay, HRV-14; assay type: cell-based, human rhinovirus; details: Rhinovirus B, HRV14, H1-HeLa, HRV serotype-14, H1-HeLa cells
Procedure, shortened: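 XTT cell-protection assay in H1-HeLa cells infected with rhinovirus or mock-infected, then incubated with compound for two days; formazan was read at 450/650 nm. EC50 is the concentration restoring infected-cell formazan to 50% of compound-free mock-infected cells; CC50 is the concentration halving formazan in mock-infected cells.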

Work on `CCOC(=O)/C=C/[C@H](C[C@@H]1CCNC1=O)NC(=O)[C@@H](CC(=O)[C@@H](NC(=O)c1cc(C)on1)C(C)C)Cc1ccc(F)cc1` [Compound B-2, Ethyl-3-{(5′-Methylisoxazole-3′-carbonyl)-L-ValΨ(COCH2)-L-(4-F-Phe)-L-((S)-Pyrrol-Ala)}-E-Propenoate] yielded an EC50 [1] of 160 nM, an EC50 (HRV-14; Table 1, XTT dye reduction, read-out: Cell Protection EC50) of 5 nM and an EC50 (HRV-14; Table 3, XTT, read-out: EC50) of 5 nM.
